# Values quoted from earlier work in patent publication EP1464334A1 (priority 2003, dated 2004).
# Where a name gives a salt, the structure may show the parent alone. Read-outs that look alike come from different tables or passages of the source.
# Experiments:
# [1] = rabbit, in vivo, po
# [2] = mouse, in vivo, po
compound,measurement,setting,value
CCN(CC)CCCC(C)Nc1c2ccc(Cl)cc2nc2ccc(OC)cc12 (centres unmarked) [Chinacrinhydrochlorid],LD50-Dosis,[1],433 mg/kg
same,LD50-Dosis,[2],557 mg/kg
